Experimental data: patent publication US8796302B2 (priority 2004, dated 2014)

Assays:
[1] = test system: TH-IR (dopaminergic) neurons in mesencephalic neuron-glia cultures; assay: TH-IR neuron count and morphology in LPS-treated neuron-glia cultures; type: cell-based, rat; conditions: for dendrite network (immunocytochemical analysis): LPS; for attenuation of LPS-induced reduction in the number of TH-IR neurons: 30 min pretreatment
[2] = test system: dopaminergic neurons in rat primary mesencephalic neuron-glia cultures; assay: DA uptake / TH-IR count in neuron-glia cultures without toxin (spontaneous DA neuronal death, neurotrophic effect); type: cell-based
Description: In Example 23, [^3H]DA uptake assay and immunohistochemical analysis for TH-IR neurons were used to assess the viability of DA neurons in rat primary mesencephalic neuron-glia cultures in which approximately 1% of the neurons are dopaminergic. [^3H]DA uptake assays were performed as described in Example 1.
Rat primary mesencephalic neuron-glia cultures were prepared from the ventral mesencephalic tissues of embryonic day 13-14 Fisher 344 rats. Dissociated cells were seeded at a density of 5×10^5/well to poly-D-lysine-precoated 24-well plates. Cells were maintained at 37° C. in a humidified atmosphere of 5% CO2 and 95% air, in minimal essential medium containing 10% fetal bovine serum (FBS), 10% horse serum, 1 gm/l glucose, 2 mM L-glutamine, 1 mM sodium pyruvate, 100 μM non-essential amino acids, 50 U/ml penicillin, and 50 μg/ml streptomycin. Unless otherwise indicated, seven-day-old cultures were used for treatment.
Seven days after seeding, each well was treated with indicated concentration of VPA or its vehicle. Seven days after treatment, the viability of dopaminergic neurons was assessed by [^3H]DA uptake assays. Quantified results are expressed as mean±SEM of percentage of vehicle-treated cultures from three experiments performed in duplicate. *, p<0.05 compared with the corresponding vehicle-treated control cultures.
Next, the rat primary mesencephalic neuron-glia cultures were treated with 0.6 mM VPA for various times to determine the treatment time-dependency. Rat primary mesencephalic neuron-glia cultures in a 24-well plate were treated with 0.6 mM VPA or its vehicle for indicated time 7 days after seeding. The viability of dopaminergic neurons was assessed by [^3H]DA uptake assays, shown in FIG. 37 or counting of TH-IR neurons, shown in FIG. 38. Quantified results are expressed as mean±SEM of percentage of vehicle-treated control cultures from three experiments performed in duplicate. *, p<0.05 compared with the corresponding vehicle-treated control cultures. […] VPA time-dependently induces survival-promoting effects against spontaneous DA neuronal death in rat primary mesencephalic neuron-glia cultures.
Rat primary mesencephalic neuron-glia cultures seeded in a 24-well culture plate at density of 5×10^5 per well were treated with indicated concentrations of sodium butyrate or its vehicle 7 days after seeding. The viability of dopaminergic neurons was assessed by DA uptake assays 7 days after sodium butyrate addition.
Mesencephalic neuron-glia cultures, prepared as described above, were pretreated with vehicle or 3-HM (1-5 μM) before the treatment of LPS (10 ng/ml). Seven days later, the degeneration of dopaminergic neurons was determined by the functional assay of [^3H]DA uptake and by the morphometric measurement of dopaminergic neurons following immunostaining with an anti-TH antibody. [^3H]DA and immunostaining are performed as described above.

[3] = test system: dopaminergic neurons in mesencephalic neuron-enriched cultures; assay: [3H]DA uptake in neuron-enriched cultures (direct, conditioned media, reconstituted); type: cell-based, rat; conditions: for DA uptake with 3-HM-treated astroglia conditioned media: 24 h conditioning, % of non-conditioned control, vehicle conditioned 122%
Description: Mixed-glia cultures were first prepared from brains of 1-day-old Fisher 344 rat pups, as described previously (Liu, et al. 2001). Mechanically dissociated brain cells (5×10^7) were seeded onto 150 cm^2 culture flasks in Dulbecco's modified Eagle's medium containing 10% heat-inactivated FBS, 2 mM L-glutamine, 1 mM sodium pyruvate, 100 μM non-essential amino acids, 50 U/ml penicillin, and 50 μg/ml streptomycin. The cultures were maintained at 37° C. in a humidified atmosphere of 5% CO2 and 95% air, and medium was replenished 4 days after the initial seeding. Upon reaching confluence (usually 12-14 days later), microglia were detached from astroglia by shaking the flasks for 5 hours at 180 rpm. Astroglia were then detached with trypsin-EDTA and seeded in the same culture medium. After five or more consecutive passages, cells were seeded onto 24-well plates (10^5/well) for experiments. Immunocytochemical staining of the astroglia enriched cultures with either anti-GFAP or anti-OX-42 antibody indicated astroglial purity of greater than 98% and less than 2% of microglia contamination.
Conditioned medium derived from rat primary astroglial cultures treated with vehicle (ACM) or 0.6 mM VPA (ACM-VPA) were harvested after 12, 24 and 48 hours of incubation. Midbrain neuron-enriched cultures seeded in 24-well plates at a density of 5×10^5 cells/well were treated with vehicle, VPA, ACM or ACM-VPA for 7 days. Neurotrophic effect was quantified by [^3H]DA uptake assay.
Rat mesencephalic neuron-enriched cultures are prepared from dissociated ventral mesencephalic cells from embryonic day 13-14 Fisher 344 rats were seeded first at a density of 5×10^5/well to poly-D-lysine-precoated 24-well culture plates. […] Three days later, the culture medium was replaced with the maintenance medium. Routinely, the seven-day-old neuron-enriched cultures were used for treatment. […] Of the Neu-N immunoractive neurons, 2.7-3.9% was TH-IR neurons.
To explore whether astroglial cells are also the main target of sodium butyrate-induced neurotrophic effect, we prepared media conditioned by incubation of astroglial cultures in the absence or presence 0.6 mM sodium butyrate. Conditioned medium derived from rat primary astroglial cultures treated with vehicle (ACM) or 0.6 mM sodium butyrate (ACM-Sodium butyrate) were harvested after 48 hours of incubation. Midbrain neuron-enriched cultures seeded in 24-well plates at a density of 5×10^5 cells/well were treated with vehicle, sodium butyrate, ACM or ACM-Sodium butyrate for 7 days. Seven days after treatment, neurotrophic effect for dopaminergic neurons was assessed by [^3H]DA uptake assays.
Various concentrations of 3-HM (0.1-5 μM) or vehicle were added to the following different cell cultures: neuron-enriched cultures (A); reconstituted cultures by adding 10% and 20% (5×10^4/well and 1×10^5/well) of microglia to the neuron-enriched cultures (B); reconstituted cultures by adding 40% and 50% (2×10^5/well and 2.5×10^5/well) of astroglia to the neuron-enriched cultures (C). Cultures are prepared as described in Example 25. The [^3H]DA uptake measurements were performed […] after treatment. Results were expressed as a percentage of the vehicle-treated control cultures and were the mean±SE from five (A) and four (B,C) independent experiments in triplicate. *P<0.05 and **P, 0.001 compared with the vehicle-treated control cultures. #P<0.05 compared with the augmented cultures with 40% astroglia. N, neuron-enriched cultures; N+10% (20%) MG: 10% (20%) of microglia were added back to the neuron-enriched cultures; N+40% (50%) AS: 40% (50%) of astroglia were added back to the neuron-enriched cultures.
To confirm the possible role of astroglia in the neurotrophic effect of 3-HM, conditioned media from astroglia-enriched cultures (prepared as described above) treated with either 3-HM (1-5 μM) or vehicle for 24 hours were prepared. […]

[4] = test system: dopaminergic neurons in rat primary mesencephalic neuron-glia cultures; assay: [3H]DA uptake in LPS-treated mesencephalic neuron-glia cultures; type: cell-based; conditions: for DA uptake, post-treatment with DM: LPS 20 ng/ml 12 h then removed

COc1ccc2c(c1)[C@@]13CCCC[C@H]1[C@@H](C2)N(C)CC3 [DM, d-3-methoxy-N-methylmorphinan]
dendrite network (immunocytochemical analysis) ([1]; DM 10^−5 M and 10^−14 M): more elaborate dendrite network | attenuation of LPS-induced reduction in the number of TH-IR neurons ([1]; DM 10^−5 M, LPS 10 ng/ml): 37% | dendrite network (immunocytochemical analysis) ([1]; DM 10^−10 M): failed to show improvement | dopaminergic neuron degeneration (TH-IR neuron number) ([1]; DM 10^−10 M, LPS 10 ng/ml): no protective effects | attenuation of LPS-induced reduction in the number of TH-IR neurons ([1]; DM 10^−14 M, LPS 10 ng/ml): 28% | neurotrophic effect of compound alone in neuron-glia cultures [2]: not observed | neurotrophic effect of DM-treated astroglia conditioned media ([3]; DM 5 μM, vs vehicle-treated conditioned cultures): failed to exhibit any neurotrophic effect | LPS-induced decrease in [3H]-dopamine uptake ([4]; DM 10^−13 and 10^−14 M, 30 min pretreatment, LPS 10 ng/ml, 7 days): equipotent neuroprotective effect | DA uptake, post-treatment with DM ([4]; DM 10^−5 and 10^−14 M post-treatment): showed a protective effect | DA uptake, post-treatment with DM ([4]; DM 10^−10 M post-treatment): but not at 10^−10 M

Oc1ccc2c(c1)[C@@]13CCCC[C@H]1[C@@H](C2)NCC3 [3-HM, 3-hydroxymorphinan]
number of dopaminergic neurons ([1]; 3-HM 5 μM pretreatment, LPS 10 ng/ml, LPS alone reduced by 51%): 97 % of the vehicle-treated control cultures | average length of dopaminergic neuronal neurites ([1]; 3-HM pretreatment, LPS 10 ng/ml, LPS alone 43%): 110 % of the vehicle-treated control cultures | increase of DA uptake capacity vs vehicle-treated control ([2]; 3-HM 1-5 μM alone, 7 days): 20-60% | neurotrophic effect of compound alone in neuron-glia cultures [2]: significant neurotrophic effect | DA uptake with 3-HM-treated astroglia conditioned media ([3]; 3-HM 1 μM, 10 days): 151.3% | DA uptake with 3-HM-treated astroglia conditioned media ([3]; 3-HM 2.5 μM, 10 days): 160.9% | DA uptake with 3-HM-treated astroglia conditioned media ([3]; 3-HM 5 μM, 10 days): 197.8% | DA uptake capacity in neuron-enriched cultures ([3]; 3-HM 0.1-5 μM, 10 days): failed to show a significant increase in the DA uptake capacity | DA uptake, neuron-enriched cultures + microglia ([3]; 10% or 20% of microglia added back, 3-HM-treated, 10 days): failed to increase DA uptake | capacity of DA uptake, neuron-enriched cultures + astroglia ([3]; 40% of astroglia added back, 3-HM-treated, 10 days): 135.8% | capacity of DA uptake, neuron-enriched cultures + astroglia ([3]; 50% of astroglia added back, 3-HM-treated, 10 days): 158.3% | LPS-induced decrease in DA uptake ([4]; 3-HM 5 μM, LPS 10 ng/ml, 7 days): almost back to the vehicle-treated control values

CCCC(CCC)C(=O)O [VPA, Valproic acid]
DA neuron morphology (anti-TH), VPA alone ([1]; VPA 0.6 mM alone): promoted neurite formation and inter-neuronal networks | TH immunostaining in cell bodies and neuronal processes ([1]; VPA 0.6 mM, alone or with LPS, vs vehicle control): enhanced the TH immunostaining | LPS-induced decrease of TH-ir neurons and loss of neuronal process (morphology) ([1]; VPA 0.2-0.6 mM pretreatment, LPS 20 ng/ml): reversed by VPA pretreatment in a dose-dependent manner | LPS-induced morphological changes of DA neurons ([1]; VPA 0.2 to 0.6 mM, 48 hours pretreatment, LPS 10 ng/ml, 7 days): prevented by VPA pretreatment | LPS-induced loss of TH-ir neurons ([1]; VPA pretreatment 48 h, significant effect at 0.2, 0.4 and 0.6 mM, LPS 20 ng/ml 72 h): prevented by VPA pretreatment in a concentration-dependent manner | capacity of [3H]DA uptake vs vehicle-treated control ([2]; VPA 0.6 mM for 7 days): marked increase | number of TH-IR neurons vs vehicle-treated control ([2]; VPA 0.6 mM for 7 days): marked increase | spontaneous DA neuronal death (DA uptake) ([2]; VPA 0.6 mM, 7 days): significantly protected DA neurons from spontaneous neuronal death | increase in DA uptake ([3]; neuron-enriched cultures, 7 days, drug 0.6 mM or conditioned medium): less than 2 fold | DA uptake levels, VPA alone ([4]; VPA 0.6 mM alone, no LPS): did not affect DA uptake levels | neuroprotection against LPS neurotoxicity (DA uptake) ([4]; VPA 0.6 mM, 6 hours pretreatment, LPS 10 ng/ml): failed to induce a significant effect | neuroprotection against LPS neurotoxicity (DA uptake) ([4]; VPA 0.6 mM, 12 hours pretreatment, LPS 10 ng/ml): complete neuroprotection | neuroprotection against LPS neurotoxicity (DA uptake) ([4]; VPA 0.6 mM, 48 hours pretreatment, LPS 10 ng/ml): further increase in DA uptake levels | LPS-induced decrease in DA uptake ([4]; VPA 0.6 mM, 48 h pretreatment, LPS 20 ng/ml): completely restored | DA uptake levels vs untreated control ([4]; VPA 0.6 mM, alone or with LPS 10 ng/ml): significantly higher than those in the untreated control | LPS-induced reduction of DA uptake ([4]; VPA 0.05-0.6 mM, 48 h pretreatment, LPS 20 ng/ml 3 days): concentration-dependently prevented | LPS-induced loss of DA uptake capacity ([4]; VPA various doses, 48 hours pretreatment, LPS 10 ng/ml 5 days): robustly blocked
